The values that follow come from PubChem BioAssay AID2009 (NMMLSC, 2009).

pEC50, pKi: −log10 of the molar value. Active and inactive are the calls of the source.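 Rule for the calls: active = EC50 of 30 microM or lower and a span of response of at least a set limit; inactive = the rest.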

One assay concerns the target Cdc42 activated mutant (human), GST fusion. As to the kind of experiment: activated mutant Cdc42 GTP-binding inhibitors, SAR follow-up, biochemical, oxadiazole analogs, multiplex bead flow cytometry, Ki (AID 2009). The note with it: Bead-based flow cytometry, Bodipy-FL-GTP binding. For orientation: Flow cytometry measures light scatter and fluorescence of single cells or particles in a stream.
A word on the pEC50: it is the EC50 on a negative log10 scale, so that one unit is a factor of ten. With `COc1ccc(-c2noc(CCC(=O)N3CCN(c4cccc(C)c4)CC3)n2)cc1`, the pEC50 was 5.63. The same measure, in the same setting: with `COc1ccc(-c2noc(CCC(=O)N3CCN(c4ccccc4Br)CC3)n2)cc1` the figure was 5.84. By EC50 is commonly meant the concentration giving half of the maximal effect. In the case of `COc1ccc(-c2noc(CCC(=O)N3CCN(c4cccc(F)c4)CC3)n2)cc1`, the EC50 entry is “inactive”. Consider `COc1ccc(-c2noc(CCC(=O)N3CCN(c4cccc(C)c4C)CC3)n2)cc1`, for which the pEC50 is 5.86. For `COc1ccc(-c2cc(CCC(=O)N3CCN(c4cc(C)ccc4C)CC3)[nH]n2)cc1`, the EC50 is > 30000 nM (inactive). As for `Cc1ccc(C)c(N2CCN(C(=O)CCc3nc(-c4ccc(Cl)cc4)no3)CC2)c1`, the pEC50 was 5.78. Still for that read-out and setting: the same measure for `COc1ccc(-c2noc(CCCCC(=O)N3CCN(c4cc(C)ccc4C)CC3)n2)cc1`: 4.76. Take `COc1ccc(-c2noc(CCC(=O)N3CCN(c4cccc(OC)c4)CC3)n2)cc1`: the EC50 entry is “inactive”. As for `COc1ccc(-c2noc(CCC(=O)N3CCC(c4cc(C)ccc4C)CC3)n2)cc1`, the pEC50 was 5.79. On the same count and under the same terms, with `Cc1ccc(C)c(N2CCN(C(=O)CCc3nc(-c4ccc(F)cc4)no3)CC2)c1` the figure was 6.18; with `COc1ccc(-c2ccc(CCC(=O)N3CCN(c4cc(C)ccc4C)CC3)s2)cc1`, 5.53; with `COc1ccc(-c2noc(CCC(=O)N3CCN(c4ccccc4C(F)(F)F)CC3)n2)cc1`, 5.70. Same read-out and setting: with `Cc1cccc(-c2noc(CCC(=O)N3CCN(c4cc(C)ccc4C)CC3)n2)c1` the figure was 5.73; with `Cc1ccc(C)c(N2CCN(C(=O)CCc3nc(-c4cccc(C(F)(F)F)c4)no3)CC2)c1`, 5.57. The same measure, in the same setting: with `Cc1ccc(C)c(N2CCN(C(=O)CCc3nc(-c4ccccc4Cl)no3)CC2)c1` the figure was 6.02.

Regarding `COc1ccc(-c2noc(CCC(=O)N3CCN(c4ccccc4Cl)CC3)n2)cc1`, the negative-log EC50 (pEC50) was 5.69. For the compound `Cc1ccc(C)c(N2CCN(C(=O)CCc3nc(-c4ccc(Br)cc4)no3)CC2)c1`, the pEC50 is 5.58. Still for that read-out and setting: with `Cc1ccc(C)c(N2CCN(C(=O)CCc3nc(-c4ccccc4C)no3)CC2)c1` the figure was 5.81; with `COc1ccc(-c2noc(CCC(=O)N3CCN(c4cccc(Cl)c4)CC3)n2)cc1`, 5.15. In the case of `Cc1ccc(C)c(N2CCN(C(=O)CCc3nc(-c4ccc(C(F)(F)F)cc4)no3)CC2)c1`, the pEC50 is 5.30. Regarding `Cc1ccc(C)c(N2CCN(C(=O)CCc3nc(-c4ccc(N(C)C)cc4)no3)CC2)c1`, the negative-log EC50 (pEC50) is 5.78.

For `COc1ccc(-c2noc(CC(=O)N3CCN(c4cc(C)ccc4C)CC3)n2)cc1`, the EC50 result was “inactive”. With `COc1ccc(-c2noc(CCC(=O)N3CCN(c4ccccc4C)CC3)n2)cc1`, the pEC50 was 5.98. On to `COc1ccc(-c2noc(CCC(=O)N3CCN(c4ccc(F)cc4)CC3)n2)cc1`, for which the EC50 entry is “inactive”. Regarding `COc1ccc(-c2noc(CCC(=O)N3CCN(c4cc(C)ccc4C)CC3)n2)cc1`, the pEC50 is 5.64.

Take `COc1ccc(-c2noc(CCCC(=O)N3CCN(c4cc(C)ccc4C)CC3)n2)cc1`: the pEC50 was 5.29. Still for that read-out and setting: with `Cc1ccc(C)c(N2CCN(C(=O)CCc3nc(-c4ccccc4Br)no3)CC2)c1` the figure was 5.92. For the compound `COc1ccc(-c2noc(CCC(=O)N3CCN(c4cccc(Br)c4)CC3)n2)cc1`, the EC50 is > 30000 nM (inactive). As to `Cc1ccc(C)c(N2CCN(C(=O)CCc3nc(-c4cccc(Br)c4)no3)CC2)c1`, the negative-log EC50 (pEC50) was 5.63. As to `Cc1ccc(C)c(N2CCN(C(=O)CCc3nc(-c4ccccc4)no3)CC2)c1`, the pEC50 is 6.21. As for `COc1ccc(-c2noc(CCC(=O)N3CCN(c4ccc(C)cc4)CC3)n2)cc1`, the EC50 result is “inactive”. In the case of `Cc1ccc(C)c(N2CCN(C(=O)CCc3nc(-c4ccccc4C(F)(F)F)no3)CC2)c1`, the negative-log EC50 (pEC50) was 5.77. For the compound `COc1ccc(-c2noc(CCC(=O)N3CCN(c4ccc(Cl)cc4)CC3)n2)cc1`, the EC50 entry is “inactive”. As to `Cc1ccc(C)c(N2CCN(C(=O)CCc3nc(-c4cccc(F)c4)no3)CC2)c1`, the pEC50 is 5.73.

`COc1ccc(-c2noc(CCC(=O)N3CCN(c4ccc(C(F)(F)F)cc4)CC3)n2)cc1`: the EC50 is > 30000 nM (inactive). Turning to `COc1ccc(-c2coc(CCC(=O)N3CCN(c4cc(C)ccc4C)CC3)n2)cc1`, the pEC50 is 5.77. Take `COc1ccc(-c2noc(CCC(=O)N3CCN(c4ccccc4)CC3)n2)cc1`: the EC50 entry is “inactive”. As for `COc1ccc(-c2ccc(CCC(=O)N3CCN(c4cc(C)ccc4C)CC3)o2)cc1`, the EC50 is > 30000 nM (inactive). The same measure, in the same setting: the same measure for `COc1ccc(-c2noc(CCC(=O)N3CCN(c4cccc(C(F)(F)F)c4)CC3)n2)cc1`: > 30000 nM (inactive); for `COc1ccc(-c2noc(CCC(=O)N3CCN(c4ccc(Br)cc4)CC3)n2)cc1`: > 30000 nM (inactive). Turning to `COc1ccc(-c2cccc(CCC(=O)N3CCN(c4cc(C)ccc4C)CC3)c2)cc1`, the pEC50 was 5.39. With `COc1ccccc1-c1noc(CCC(=O)N2CCN(c3cc(C)ccc3C)CC2)n1`, the pEC50 was 5.31. The same measure, in the same setting: with `COc1ccc(-c2cc(CCC(=O)N3CCN(c4cc(C)ccc4C)CC3)on2)cc1` the figure was 5.84. Same read-out and setting: the same measure for `COc1ccc(-c2noc(CCC(=O)N3CCN(c4ccc(OC)cc4)CC3)n2)cc1`: 6.15. As for `COc1ccc(-c2ccc(CCC(=O)N3CCN(c4cc(C)ccc4C)CC3)[nH]2)cc1`, the EC50 is > 30000 nM (inactive). `Cc1ccc(-c2noc(CCC(=O)N3CCN(c4cc(C)ccc4C)CC3)n2)cc1`: the negative logarithm of the EC50 (pEC50) is 5.52. On the same count and under the same terms, with `COc1ccc(-c2noc(CCC(=O)N3CCN(c4ccccc4OC)CC3)n2)cc1` the figure was 5.51; with `COc1cccc(-c2noc(CCC(=O)N3CCN(c4cc(C)ccc4C)CC3)n2)c1`, 5.43; with `Cc1ccc(C)c(N2CCN(C(=O)CCc3nc(-c4ccccc4F)no3)CC2)c1`, 5.82. For the compound `COc1ccc(-c2noc(CCC(=O)N3CCN(c4ccccc4F)CC3)n2)cc1`, the negative logarithm of the EC50 (pEC50) is 5.97. Still for that read-out and setting: with `Cc1ccc(C)c(N2CCN(C(=O)CCc3nc(-c4cccc(Cl)c4)no3)CC2)c1` the figure was 5.41.

Still in this assay, the particulars now being: Bead-based flow cytometry, Bodipy-FL-GTP binding; measured here: Ki calculated from EC50.
One may read the pKi as −log10 of the Ki, conventionally taken in molar units. Take `COc1ccc(-c2noc(CCC(=O)N3CCN(c4cccc(C)c4)CC3)n2)cc1`: the negative-log Ki (pKi) was 6.44. Same read-out and setting: with `COc1ccc(-c2noc(CCC(=O)N3CCN(c4ccccc4Br)CC3)n2)cc1` the figure was 6.66; with `COc1ccc(-c2noc(CCC(=O)N3CCN(c4cccc(F)c4)CC3)n2)cc1`, 6.77. As for `COc1ccc(-c2noc(CCC(=O)N3CCN(c4cccc(C)c4C)CC3)n2)cc1`, the pKi was 6.68. Still for that read-out and setting: the same measure for `Cc1ccc(C)c(N2CCN(C(=O)CCc3nc(-c4ccc(Cl)cc4)no3)CC2)c1`: 6.59; for `COc1ccc(-c2noc(CCCCC(=O)N3CCN(c4cc(C)ccc4C)CC3)n2)cc1`: 5.57; for `COc1ccc(-c2noc(CCC(=O)N3CCN(c4cccc(OC)c4)CC3)n2)cc1`: 6.12. Same read-out and setting: with `COc1ccc(-c2noc(CCC(=O)N3CCC(c4cc(C)ccc4C)CC3)n2)cc1` the figure was 6.60.

Regarding `Cc1ccc(C)c(N2CCN(C(=O)CCc3nc(-c4ccc(F)cc4)no3)CC2)c1`, the pKi was 7.00. Same read-out and setting: with `COc1ccc(-c2ccc(CCC(=O)N3CCN(c4cc(C)ccc4C)CC3)s2)cc1` the figure was 6.34; with `COc1ccc(-c2noc(CCC(=O)N3CCN(c4ccccc4C(F)(F)F)CC3)n2)cc1`, 6.51; with `Cc1cccc(-c2noc(CCC(=O)N3CCN(c4cc(C)ccc4C)CC3)n2)c1`, 6.54.

`Cc1ccc(C)c(N2CCN(C(=O)CCc3nc(-c4cccc(C(F)(F)F)c4)no3)CC2)c1`: the pKi is 6.39. Same read-out and setting: the same measure for `Cc1ccc(C)c(N2CCN(C(=O)CCc3nc(-c4ccccc4Cl)no3)CC2)c1`: 6.82; for `COc1ccc(-c2noc(CCC(=O)N3CCN(c4ccccc4Cl)CC3)n2)cc1`: 6.51; for `Cc1ccc(C)c(N2CCN(C(=O)CCc3nc(-c4ccc(Br)cc4)no3)CC2)c1`: 6.39. As to `Cc1ccc(C)c(N2CCN(C(=O)CCc3nc(-c4ccccc4C)no3)CC2)c1`, the negative-log Ki (pKi) is 6.62. `COc1ccc(-c2noc(CCC(=O)N3CCN(c4cccc(Cl)c4)CC3)n2)cc1`: the negative-log Ki (pKi) is 5.96. On the same count and under the same terms, the same measure for `Cc1ccc(C)c(N2CCN(C(=O)CCc3nc(-c4ccc(C(F)(F)F)cc4)no3)CC2)c1`: 6.11; for `Cc1ccc(C)c(N2CCN(C(=O)CCc3nc(-c4ccc(N(C)C)cc4)no3)CC2)c1`: 6.59. Turning to `COc1ccc(-c2noc(CC(=O)N3CCN(c4cc(C)ccc4C)CC3)n2)cc1`, the negative logarithm of the Ki (pKi) was 5.75. Same read-out and setting: with `COc1ccc(-c2noc(CCC(=O)N3CCN(c4ccccc4C)CC3)n2)cc1` the figure was 6.80. On the same count and under the same terms, with `COc1ccc(-c2noc(CCC(=O)N3CCN(c4ccc(F)cc4)CC3)n2)cc1` the figure was 6.85; with `COc1ccc(-c2noc(CCC(=O)N3CCN(c4cc(C)ccc4C)CC3)n2)cc1`, 6.46; with `COc1ccc(-c2noc(CCCC(=O)N3CCN(c4cc(C)ccc4C)CC3)n2)cc1`, 6.10. As for `Cc1ccc(C)c(N2CCN(C(=O)CCc3nc(-c4ccccc4Br)no3)CC2)c1`, the pKi was 6.74. Still for that read-out and setting: with `Cc1ccc(C)c(N2CCN(C(=O)CCc3nc(-c4cccc(Br)c4)no3)CC2)c1` the figure was 6.44. As for `Cc1ccc(C)c(N2CCN(C(=O)CCc3nc(-c4ccccc4)no3)CC2)c1`, the pKi is 7.00. Same read-out and setting: with `COc1ccc(-c2noc(CCC(=O)N3CCN(c4ccc(C)cc4)CC3)n2)cc1` the figure was 6.72; with `Cc1ccc(C)c(N2CCN(C(=O)CCc3nc(-c4ccccc4C(F)(F)F)no3)CC2)c1`, 6.59.

As to `COc1ccc(-c2noc(CCC(=O)N3CCN(c4ccc(Cl)cc4)CC3)n2)cc1`, the negative-log Ki (pKi) was 7.70. Still for that read-out and setting: the same measure for `Cc1ccc(C)c(N2CCN(C(=O)CCc3nc(-c4cccc(F)c4)no3)CC2)c1`: 6.55.

Consider `COc1ccc(-c2coc(CCC(=O)N3CCN(c4cc(C)ccc4C)CC3)n2)cc1`, for which the pKi is 6.59. Same read-out and setting: the same measure for `COc1ccc(-c2noc(CCC(=O)N3CCN(c4ccccc4)CC3)n2)cc1`: 6.96.

`COc1ccc(-c2cccc(CCC(=O)N3CCN(c4cc(C)ccc4C)CC3)c2)cc1`: the pKi is 6.20. `COc1ccccc1-c1noc(CCC(=O)N2CCN(c3cc(C)ccc3C)CC2)n1`: the pKi is 6.12.

Consider `COc1ccc(-c2cc(CCC(=O)N3CCN(c4cc(C)ccc4C)CC3)on2)cc1`, for which the negative logarithm of the Ki (pKi) is 6.66.

`COc1ccc(-c2noc(CCC(=O)N3CCN(c4ccc(OC)cc4)CC3)n2)cc1`: the negative-log Ki (pKi) is 6.96. The same measure, in the same setting: with `Cc1ccc(-c2noc(CCC(=O)N3CCN(c4cc(C)ccc4C)CC3)n2)cc1` the figure was 6.33; with `COc1ccc(-c2noc(CCC(=O)N3CCN(c4ccccc4OC)CC3)n2)cc1`, 6.32; with `COc1cccc(-c2noc(CCC(=O)N3CCN(c4cc(C)ccc4C)CC3)n2)c1`, 6.24. Same read-out and setting: the same measure for `Cc1ccc(C)c(N2CCN(C(=O)CCc3nc(-c4ccccc4F)no3)CC2)c1`: 6.64; for `COc1ccc(-c2noc(CCC(=O)N3CCN(c4ccccc4F)CC3)n2)cc1`: 6.77. On the same count and under the same terms, with `Cc1ccc(C)c(N2CCN(C(=O)CCc3nc(-c4cccc(Cl)c4)no3)CC2)c1` the figure was 6.22.
